This passage reports inhibition, IC50 and MIC results from ChEMBL document CHEMBL3865798, “Engineering another class of anti-tubercular lead: Hit to lead optimization of an intriguing class of gyrase ATPase inhibitors” (Eur J Med Chem, 2016).

SMILES strings stand for the structures. In brackets after ≈: the same amount, converted by molar mass.

Data set [1] can be described thus: Growth inhibition of mouse RAW264.7 cells at 100 uM after 48 hrs by MTT assay. The conditions noted are these: read-out: GI. Format: cell-based. In general terms: Tetrazolium assays rely on reduction of a dye to a coloured formazan, in cell work by metabolically active cells.
Data set [2] concerns the target DNA gyrase subunit B (Mycobacterium smegmatis (strain ATCC 700084 / mc(2)155), UniProt A0QNE0).
Description: Inhibition of Mycobacterium smegmatis 155 6His-tagged DNA gyrase B catalytic domain ATPase activity expressed in Escherichia coli BL21 (DE3) pLysS cells assessed as inorganic phosphate release after 120 mins in presence of ATP by malachite green dye based assay
The test system of data set [3] is Mycobacterium tuberculosis. The experiment in a line: microbe, parasite or virus in culture. The conditions noted are these: H37Rv, 168 h.
Description: Antimycobacterial activity against Mycobacterium tuberculosis H37Rv after 7 days by microplate alamar blue assay

Chain of DNA gyrase subunit B (Mycobacterium smegmatis (strain ATCC 700084 / mc(2)155), UniProt A0QNE0) (A0QNE0 whole entry): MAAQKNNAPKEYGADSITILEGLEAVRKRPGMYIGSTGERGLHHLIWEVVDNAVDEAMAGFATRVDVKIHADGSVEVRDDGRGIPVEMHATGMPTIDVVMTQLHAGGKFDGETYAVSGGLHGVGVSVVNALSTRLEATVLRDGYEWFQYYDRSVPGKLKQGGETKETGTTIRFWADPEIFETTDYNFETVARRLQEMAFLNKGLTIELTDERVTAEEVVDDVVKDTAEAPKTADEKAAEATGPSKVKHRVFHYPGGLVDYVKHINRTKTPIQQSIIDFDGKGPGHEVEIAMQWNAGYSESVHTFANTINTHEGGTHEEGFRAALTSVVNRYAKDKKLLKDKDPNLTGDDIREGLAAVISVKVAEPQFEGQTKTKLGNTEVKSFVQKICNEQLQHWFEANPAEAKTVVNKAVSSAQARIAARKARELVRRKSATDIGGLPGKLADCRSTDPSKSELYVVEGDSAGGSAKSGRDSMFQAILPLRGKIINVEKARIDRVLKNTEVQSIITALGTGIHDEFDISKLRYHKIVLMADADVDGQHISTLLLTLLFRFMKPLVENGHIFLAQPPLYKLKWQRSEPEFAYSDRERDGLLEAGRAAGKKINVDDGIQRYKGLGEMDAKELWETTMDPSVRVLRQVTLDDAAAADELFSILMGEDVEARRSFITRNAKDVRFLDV

One may read the IC50 as the concentration at which inhibition is half-maximal. Regarding `O=C(CN1CCN(c2ccnc3cc(Cl)ccc23)CC1)NCc1ccccn1`, the inhibition at 48 h, 100 µM in data set [1] was found to be 36.4%. In data set [2], this compound returned an IC50 of 12.2 µM. This compound came in with an MIC in data set [3] of 31.6 µM (≈ 12.5 µg/mL).
In the same order, the values of `S=C(Nc1ccccc1)N1CCN(c2ccnc3cc(Cl)ccc23)CC1` are 16.5%, 4.12 µM and 16.3 µM (≈ 6.25 µg/mL).
In the same order, the values of `O=C(CN1CCN(c2ccnc3cc(Cl)ccc23)CC1)Nc1ccccc1` are 26.2%, 33.1 µM and 35.5 µM (≈ 13.5 µg/mL).
In the same order, the values of `O=C(CN1CCN(c2ccnc3cc(Cl)ccc23)CC1)Nc1ccccn1` are 25.4%, 9.1 µM and 17.7 µM (≈ 6.76 µg/mL).
`O=C(Nc1ccc(Cl)cc1)N1CCN(c2ccnc3cc(Cl)ccc23)CC1`: the inhibition at 48 h, 100 µM in data set [1] is 26.2%. In data set [2], this compound returned an IC50 of 9.9 µM. In data set [3], the MIC stood at 31.5 µM (≈ 12.6 µg/mL).
Turning to `COc1ccc2c(N3CCN(CC(=O)NCc4ccccn4)CC3)ccnc2c1`, the inhibition at 48 h, 100 µM in data set [1] was 33.5%. The compound further displayed an IC50 in data set [2] of 51.6 µM. The MIC in data set [3] was 63.9 µM (≈ 25 µg/mL).
As for `Clc1ccc2c(N3CCN(Cc4c[nH]c5ccccc45)CC3)ccnc2c1`, the inhibition at 48 h, 100 µM in data set [1] worked out at 22.2%. Besides, the IC50 in data set [2] was found to be 8.3 µM. In addition, the MIC in data set [3] is 16.2 µM (≈ 6.12 µg/mL).
With `O=C(NCc1ccccc1)N1CCN(c2ccnc3cc(Cl)ccc23)CC1`, the inhibition at 48 h, 100 µM in data set [1] is 25.2%. The same compound showed an IC50 in data set [2] of 6.1 µM. This compound displayed an MIC in data set [3] of 17.7 µM (≈ 6.73 µg/mL).
The matching figures for `COc1ccc2[nH]c(C(=O)N3CCN(c4ccnc5cc(Cl)ccc45)CC3)cc2c1`: 16.4%, 24.3 µM and 29.7 µM (≈ 12.5 µg/mL).
The matching figures for `O=C(c1cc2cc(F)ccc2[nH]1)N1CCN(c2ccnc3cc(Cl)ccc23)CC1`: 23.3%, 13.6 µM and 15.3 µM (≈ 6.25 µg/mL).
On to `Cc1ccc(NC(=O)N2CCN(c3ccnc4cc(Cl)ccc34)CC2)cc1`, for which the inhibition at 48 h, 100 µM in data set [1] was 33.9%. In data set [2], this compound registered a half-inhibitory concentration (IC50) of 16 µM. In data set [3], this compound registered an MIC of 32.8 µM (≈ 12.5 µg/mL).
In the same order, the values of `O=[N+]([O-])c1cnc(N2CCN(c3ccnc4cc(Cl)ccc34)CC2)s1` are 35.1%, 9.6 µM and 33.2 µM (≈ 12.5 µg/mL).
In the same order, the values of `O=C(c1cc2ccccc2[nH]1)N1CCN(c2ccnc3cc(Cl)ccc23)CC1` are 34.6%, 8.53 µM and 16 µM (≈ 6.25 µg/mL).
The matching figures for `O=C(CN1CCN(c2ccnc3cc(Cl)ccc23)CC1)Nc1nc2ccc([N+](=O)[O-])cc2s1`: 23.6%, 16.1 µM and 25.8 µM (≈ 12.5 µg/mL).
As to `CCNC(=S)N1CCN(c2ccnc3cc(Cl)ccc23)CC1`, the inhibition at 48 h, 100 µM in data set [1] was 21.9%. In data set [2], this compound came in with a half-maximal inhibitory concentration (IC50) of 40.6 µM. In data set [3], this compound yielded an MIC of 74.6 µM (≈ 25 µg/mL).
The matching figures for `O=[N+]([O-])c1ccc(NC(=S)N2CCN(c3ccnc4cc(Cl)ccc34)CC2)cc1`: 39.9%, 6.8 µM and 14.3 µM (≈ 6.13 µg/mL).
Consider `O=C(Nc1ccc([N+](=O)[O-])cc1)N1CCN(c2ccnc3cc(Cl)ccc23)CC1`, for which the inhibition at 48 h, 100 µM in data set [1] is 41.8 to 42%. The concentration for half-maximal inhibition (IC50) in data set [2] was found to be 9.2 µM. The MIC in data set [3] was 30.4 µM (≈ 12.5 µg/mL).
Take `CC(=O)c1ccc(NC(=O)N2CCN(c3ccnc4cc(Cl)ccc34)CC2)cc1`: the inhibition at 48 h, 100 µM in data set [1] came to 26.2%. In data set [2], this compound returned a half-inhibitory concentration (IC50) of 18.8 µM. Further, the MIC in data set [3] turned out to be 30.6 µM (≈ 12.5 µg/mL).
In turn, `CO[C@H]1/C=C/O[C@@]2(C)Oc3c(C)c(O)c4c(O)c(c(/C=N/N5CCN(C)CC5)c(O)c4c3C2=O)NC(=O)/C(C)=C\C=C\[C@H](C)[C@H](O)[C@@H](C)[C@@H](O)[C@@H](C)[C@H](OC(C)=O)[C@@H]1C` [RIFAMPIN] showed an MIC in data set [3] of 0.23 µM (≈ 0.189 µg/mL).
Turning to `CC1COc2c(N3CCN(C)CC3)c(F)cc3c(=O)c(C(=O)O)cn1c23` (configuration not stated) [OFLOXACIN], the MIC in data set [3] was 2.16 µM (≈ 0.781 µg/mL).
In data set [3], `NNC(=O)c1ccncc1` [ISONIAZID] registered an MIC of 0.66 µM (≈ 0.0905 µg/mL).
